Earlier results on two compounds are cited in patent publication US20050065094A1, “Use of telmisartan for the prevention and treatment of vascular headache” (Boehringer Ingelheim International GmbH, priority 2003, published 2005).

Each structure is given as a SMILES string.

The subject of data set [1] is patients suffering from migraine. To be noted: placebo-controlled crossover.
Data set [2] has as its system patients having mild/moderate hypertension. The following applies: placebo-controlled.

As to `CCOc1nc2cccc(C(=O)O)c2n1Cc1ccc(-c2ccccc2-c2nnn[nH]2)cc1` [candesartan], the tolerability profile result in data set [1] is reported as “good tolerability profile”.
For `CCCCC1=NC2(CCCC2)C(=O)N1Cc1ccc(-c2ccccc2-c2nnn[nH]2)cc1` [irbesartan], the incidence of headache result in data set [2] is recorded as “significant reduction in the incidence of headache”.
